Measurements published in patent publication US20070207967A1, “Peptide Inhibitors of Matrix Metalloproteinase Activity” (CTT CANCER TARGETING TECHNOLOGIES OY, priority 2004, published 2007).

Key:
uPAR [1] = assay: uPAR cleavage on THP-1 cells; format: cell-based, human; settings: InhI 20 μM, CTT 200 μM, aprotinin 25 μg/ml
Text: (§1) uPAR clevage. […] Chymotrypsin cleavage was done without aprotinin.

uPAR [2] = assay: uPAR cleavage on HT1080 cells; format: cell-based, human; settings: for Inhibition of uPAR cleavage: HT1080, InhI 20 μM, aprotinin 25 μg/ml, benzamidine 20 μM, 48 h
Text: as §1

CBD [3] = molecular target: T1, CBD (Homo sapiens, UniProt P14780); assay: Pepspot membrane assay of CBD binding; settings: 0.2 μg/ml biotinylated CBD
T1 construct: CBD (amino acids Gly^204-Gly^373) was amplified from MMP-9 cDNA; made in house; host or cells: E. coli
T1 sequence (P14780 223-392 limits assumed): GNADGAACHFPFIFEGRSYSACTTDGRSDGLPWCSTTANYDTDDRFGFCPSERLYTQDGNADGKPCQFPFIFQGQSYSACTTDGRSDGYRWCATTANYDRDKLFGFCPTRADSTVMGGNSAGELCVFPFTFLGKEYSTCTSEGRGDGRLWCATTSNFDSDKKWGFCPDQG
Protocol: Peptide synthesis. The phage peptides were initially prepared in a recombinant form using intein fusions (12,15). Chemical peptide synthesis was done using Fmoc-chemistry and the purity and integrity of the peptides was verified by mass spectroscopy (15). The peptides were dissolved in water, except the CRV and DDGW peptides, which were dissolved in 50 mM NaOH at a 10 mM concentration and then diluted into PBS to neutralize the pH. The […] and […] peptides were synthesized on a cellulose membrane. The membrane was blocked with 3% BSA in TBS/0.05% Tween 20, and incubated with 0.2 μg/ml biotinylated CBD. Bound CBD was detected using peroxidase-conjugated streptavidin (1:10 000 dilution, Pierce) and chemiluminescence detection.

HT1080 cells = assay: Pericellular proteolysis (gelatinolysis) of HT1080 cells; format: cell-based, human; settings: HT1080, 48 h, PDBu, fibronectin/FITC-labelled gelatin coating
Protocol: Pericellular proteolysis. Microtiter wells were coated with a mixture of fibronectin (10 μg/ml) and FITC-labelled gelatin (100 μg/ml) followed by saturation with 1% BSA in PBS. HT1080 cells (50 000 in 100 μl 0.1% BSA/DMEM) were incubated in the presence of 20 nM PDBu (4β-phorbol-12,13-dibutyrate, SigmaAldrich) and the peptides or the MMP-2/MMP-9 selective inhibitor InhI (Calbiochem). As a control non-activated cells and medium without the cells were used. Gelatinolysis after 48 hours was measured as the increase of fluorescence from a 50 μl aliquot of the conditioned medium using Wallac Victor^2 reader.

pro-MMP-9 [4] = molecular target: T2, pro-MMP-9 (Homo sapiens, UniProt P14780); assay: Phage binding to pro-MMP-9 with competitors; settings: competitor peptides 20 μM, gelatin 2.5 μg/ml; for Binding of the CRV-phage to pro-MMP-9, competition: TIMP-1 2.5 μg/ml
T2 sequence (P14780 20-707 limits assumed): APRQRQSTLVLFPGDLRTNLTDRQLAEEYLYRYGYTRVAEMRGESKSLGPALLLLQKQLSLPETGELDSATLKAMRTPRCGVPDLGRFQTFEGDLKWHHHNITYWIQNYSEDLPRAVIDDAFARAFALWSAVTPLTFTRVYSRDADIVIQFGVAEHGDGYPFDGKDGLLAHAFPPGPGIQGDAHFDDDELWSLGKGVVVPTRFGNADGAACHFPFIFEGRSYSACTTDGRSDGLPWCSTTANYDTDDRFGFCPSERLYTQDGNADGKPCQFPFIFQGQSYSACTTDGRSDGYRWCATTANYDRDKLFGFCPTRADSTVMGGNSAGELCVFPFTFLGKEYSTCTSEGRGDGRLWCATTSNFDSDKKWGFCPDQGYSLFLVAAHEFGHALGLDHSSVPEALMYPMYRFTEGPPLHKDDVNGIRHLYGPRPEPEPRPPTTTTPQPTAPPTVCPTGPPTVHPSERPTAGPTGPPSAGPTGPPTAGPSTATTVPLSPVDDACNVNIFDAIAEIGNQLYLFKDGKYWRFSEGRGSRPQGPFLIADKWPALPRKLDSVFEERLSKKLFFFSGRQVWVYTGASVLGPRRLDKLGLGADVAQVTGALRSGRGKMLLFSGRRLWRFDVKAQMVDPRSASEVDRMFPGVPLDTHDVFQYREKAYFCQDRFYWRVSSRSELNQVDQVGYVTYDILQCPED
Protocol: Phage display. Phage display selections were made using random peptide libraries CX7-10C and X9-10 (13). Purified human pro-MMP-9 (9) or recombinant MMP-9 C domain (2 μg/ml) was immobilized on microtiter wells and the wells were blocked with BSA. The phage were added in 50 mM Hepes (pH 7.5)/5 mM CaCl2/1 μM ZnCl2/150 mM NaCl/2% BSA. After three rounds of selection the phage sequences were determined (14). The phage binding specificity was tested with pro-MMPs or the recombinant domains (20 ng/well). The phage (10^8 transducing units/well) were allowed to bind in the absence or presence of competitor peptides (20 μM), gelatin (2.5 μg/ml) or TIMP-1 (2.5 μg/ml, Calbiochem) followed by washings with PBS/0.05% Tween20 (PBST). The phage were detected with a peroxidase-conjugated anti-phage antibody (Amersham Biosciences).

HT1080 fibrosarcoma = assay: HT1080 invasion through matrigel; format: cell-based, human
Protocol: (§2) Cell migration and invasion. The cell migration assay was conducted using transwell migration chambers (8 μm pore size, Costar) in 10% serum-containing medium (2,14). Briefly, the membranes were coated on both sides with 40 μg/ml GST or with the β2 integrin ligand peptide […]-GST fusion (GST-LLG-C4) and blocked with complete medium. THP-1 cells (50 000/100 μl) were preincubated with the peptides for 1 h in serum-containing medium. The cells were allowed to migrate for 16 h and were then stained with crystal violet and counted (14). The HT1080 (20 000 cells/I100 μl) invasion assay was performed as the THP-1 migration, except that matrigel coated transwells (BD Biosciences) were used.

trypsin-activated MMP-9 = trypsin-activated MMP-9 (Homo sapiens, UniProt P14780); assay: Gelatinase inhibition assay (gelatin degradation), MMP-9; format: biochemical; settings: biotinylated gelatin substrate
trypsin-activated MMP-9, sequence (P14780 107-707 limits assumed): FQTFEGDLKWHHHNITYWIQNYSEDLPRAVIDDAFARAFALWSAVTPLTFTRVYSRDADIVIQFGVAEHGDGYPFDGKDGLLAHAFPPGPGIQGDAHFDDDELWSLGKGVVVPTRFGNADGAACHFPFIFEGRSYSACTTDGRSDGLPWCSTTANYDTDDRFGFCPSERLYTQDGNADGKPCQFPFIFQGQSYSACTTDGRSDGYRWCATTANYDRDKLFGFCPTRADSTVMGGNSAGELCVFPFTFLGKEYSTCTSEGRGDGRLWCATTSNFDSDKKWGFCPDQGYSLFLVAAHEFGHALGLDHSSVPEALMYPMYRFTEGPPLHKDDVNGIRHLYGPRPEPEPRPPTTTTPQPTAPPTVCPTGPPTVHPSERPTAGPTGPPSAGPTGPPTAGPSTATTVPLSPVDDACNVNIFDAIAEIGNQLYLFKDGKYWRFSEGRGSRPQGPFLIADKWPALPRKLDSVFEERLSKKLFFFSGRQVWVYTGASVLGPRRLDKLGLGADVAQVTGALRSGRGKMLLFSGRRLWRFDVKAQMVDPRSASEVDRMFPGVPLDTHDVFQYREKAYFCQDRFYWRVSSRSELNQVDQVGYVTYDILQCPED
Protocol: (§3) Gelatinase inhibition assay. Inhibition of aminophenylmercuric acetate (APMA)-activated MMP-2 and trypsin-activated MMP-9 was performed using biotinylated gelatin as a substrate (15).

αM integrin I domain = αM integrin I domain (Homo sapiens, UniProt P11215); assay: Pro-MMP-9 binding to αM integrin I domain
αM integrin I domain, sequence (P11215 150-328 limits assumed): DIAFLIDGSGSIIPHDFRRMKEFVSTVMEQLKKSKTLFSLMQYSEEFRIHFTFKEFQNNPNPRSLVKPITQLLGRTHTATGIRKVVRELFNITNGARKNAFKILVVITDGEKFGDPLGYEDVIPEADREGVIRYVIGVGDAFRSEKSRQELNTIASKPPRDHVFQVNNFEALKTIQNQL
Protocol: Pro-MMP-9 and gelatin binding to leukocyte αM integrin. Pro-MMP-9 binding to the αM I domain in the presence of peptides was studied as described (12). Gelatin binding to the pro-MMP-^9/αMβ2 integrin complex was studied by immobilizing the integrin αMβ2 (12) or αIIbβ3 as a control (Enzyme Research Laboratories, South Bend, Ind.) (1 μg/well) in TBS/1 mM CaCl2/1 mM MgCl2 followed by saturation of the wells with 1% BSA in PB ST. Pro-MMP-9 (100 ng/well) was incubated for 2 h and the unbound pro-MMP-9 was washed away. Biotinylated gelatin (2.5 μg/ml) was allowed to bind for 30 min at room temperature. Bound gelatin was detected with streptavidin-peroxidase.

[5] = molecular target: T3, aminophenylmercuric acetate (APMA)-activated MMP-2 (Homo sapiens, UniProt P08253); assay: Gelatinase inhibition assay (gelatin degradation), MMP-2; format: biochemical; settings: biotinylated gelatin substrate
T3 sequence (P08253 110-660): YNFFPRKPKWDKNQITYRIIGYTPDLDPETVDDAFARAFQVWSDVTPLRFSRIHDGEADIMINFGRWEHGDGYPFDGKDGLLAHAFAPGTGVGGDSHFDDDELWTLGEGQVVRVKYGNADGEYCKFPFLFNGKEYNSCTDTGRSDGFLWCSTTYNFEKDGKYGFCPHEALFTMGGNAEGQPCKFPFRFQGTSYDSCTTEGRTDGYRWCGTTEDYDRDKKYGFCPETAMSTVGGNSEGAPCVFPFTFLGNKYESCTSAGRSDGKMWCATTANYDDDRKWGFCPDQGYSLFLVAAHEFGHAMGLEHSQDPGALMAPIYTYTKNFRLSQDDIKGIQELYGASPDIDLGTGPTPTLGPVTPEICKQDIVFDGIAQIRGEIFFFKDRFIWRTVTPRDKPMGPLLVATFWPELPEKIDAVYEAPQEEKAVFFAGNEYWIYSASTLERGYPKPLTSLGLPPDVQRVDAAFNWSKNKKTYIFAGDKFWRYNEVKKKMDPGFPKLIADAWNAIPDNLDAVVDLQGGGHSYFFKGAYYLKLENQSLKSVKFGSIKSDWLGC
Protocol: as §3

CBD [6] = molecular target: T1, CBD; assay: Gelatin binding to immobilized CBD; settings: biotinylated gelatin
Protocol: (§4) Gelatin and CBD binding assays. Recombinant CBD or human plasma fibronectin (Calbiochem) (0.2 μg/ml in TBS) was immobilized in microtiter wells. The wells were saturated with 1% BSA-PBST. Biotinylated gelatin (0.2 μg/ml in 1% BSA-PBST) was added with or without peptides at the concentrations indicated or with an excess of unlabelled gelatin (10 μg/ml) and allowed to bind for 1 h. Bound gelatin was detected with streptavidin-peroxidase. CBD binding to immobilized fibronectin, the 110-kDa fragment of fibronectin (Upstate Biotechnology) or urea-denaturated human plasma vitronectin (17) (1 μg/well) was studied using biotinylated CBD (5 μg/ml) in 1% BSA-PBST in the presence or absence of 20 μM peptides.

fibronectin = assay: Gelatin binding to fibronectin; set-up: species or system human; settings: data not shown
fibronectin, sequence (P02751 306-608 limits assumed): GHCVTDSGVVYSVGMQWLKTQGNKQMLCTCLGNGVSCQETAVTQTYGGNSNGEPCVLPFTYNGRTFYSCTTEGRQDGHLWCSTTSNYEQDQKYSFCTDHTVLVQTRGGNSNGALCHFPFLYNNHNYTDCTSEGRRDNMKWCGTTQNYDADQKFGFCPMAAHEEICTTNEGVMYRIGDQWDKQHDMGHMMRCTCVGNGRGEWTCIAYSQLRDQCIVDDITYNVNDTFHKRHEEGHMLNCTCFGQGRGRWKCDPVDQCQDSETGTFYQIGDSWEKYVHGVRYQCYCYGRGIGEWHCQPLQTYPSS
Protocol: as §4

gelatinase [7] = assay: Gelatin degradation assay, gelatinase not specified; format: biochemical
Protocol: as §3

THP-1 monocytic cells = assay: THP-1 cell migration on GST-LLG-C4; format: cell-based, human; settings: GST-LLG-C4 substratum, 16 h
Protocol: as §2

pro-MMP-9 [8] = molecular target: T2, pro-MMP-9; assay: Pro-MMP-9 activation in THP-1 cells, zymography; format: cell-based; settings: THP-1, pro-MMP-3 and plasminogen, peptides 200 μM
Protocol: Activation of MMP-9. THP-1 cells (40 000/100 μl) or confluent HT1080 cells were incubated for 16 h in the presence or absence of 2.5 μg/ml plasminogen, 0.5 μg/ml pro-MMP-3 (Oncogene Research Products), 40 nM PDBu, and the peptides at a 200 μM concentration unless otherwise indicated. Aliquots of the conditioned media were analyzed by gelatin zymography (9). […] The samples were analyzed by gelatin zymography.

CBD [9] = molecular target: T1, CBD; assay: CBD binding to fibronectin and vitronectin, solid phase; settings: 20 μM peptides, biotinylated CBD
Protocol: as §4

gelatinase [10] = settings: 100 μM concentration; ref (15); cited from earlier work

aprotinin
Inhibition of uPAR cleavage (uPAR [1]): not
Inhibition of uPAR cleavage (uPAR [2]): not

TTPNSLLVSWQPPRARIT [PPC-like fibronectin peptide]
Binding of biotinylated CBD to peptide on pepspot membrane (CBD [3]): bound

O=C(O)[C@@H](Cc1ccccc1)NS(=O)(=O)c1ccc(-c2ccccc2)cc1 [InhI]
Inhibition of uPAR cleavage (uPAR [1]): inhibited
Level of cell surface-bound uPA (uPAR [2]; HT1080, InhI 20 μM): reduced
Inhibition of uPAR cleavage (uPAR [2]): inhibited uPAR cleavage
Inhibition of pericellular gelatinolysis (HT1080 cells): inhibited

gelatin
Binding of PPC peptide-bearing phage to pro-MMP-9, competition (pro-MMP-9 [4]): inhibited
Binding of the CRV-phage to pro-MMP-9, competition (pro-MMP-9 [4]): not

ADGACGYGRFSPPCGAAG
IC50 (HT1080 fibrosarcoma; matrigel, read-out: Concentration required to achieve the same efficacy (50% inhibition of HT1080 invasion)): 500 µM
Inhibition of MMP-9 activity in gelatin degradation assay (trypsin-activated MMP-9): inhibited
Effect on interaction of MMP-9 with the leukocyte αM integrin I domain (αM integrin I domain): do not affect
Higher pro-MMP-9 binding to the I domain in the presence of peptide (αM integrin I domain; typically): 20-50%
Inhibition of MMP-2 activity in gelatin degradation assay [5]: inhibited
Inhibition of gelatin binding to immobilized CBD (CBD [6]): inhibited gelatin binding to immobilized CBD in a dose dependent manner
Effect on gelatin binding to fibronectin (fibronectin): no effect
Binding of PPC peptide-bearing phage to pro-MMP-9, competition (pro-MMP-9 [4]): inhibited
Binding of the CRV-phage to pro-MMP-9, competition (pro-MMP-9 [4]): not
Inhibition of pericellular gelatinolysis (HT1080 cells): inhibited
Gelatinase inhibitor strength relative to CTT (gelatinase [7]): weaker gelatinase inhibitor than CTT
Inhibition of THP-1 migration (THP-1 monocytic cells): inhibitory effect
Effect on pro-MMP-9 activation (pro-MMP-9 [8]): augmented
Inhibition of CBD binding to fibronectin and vitronectin (CBD [9]): inhibited

ADGACPSYGPRFGCGAAG [scr. PPC, scrambled control peptide of PPC, reference compound]
Inhibition of MMP-9 activity in gelatin degradation assay (trypsin-activated MMP-9): no effect
Inhibition of MMP-2 activity in gelatin degradation assay [5]: no effect

CTTHWGFTLC [reference compound]
Inhibition of HT1080 invasion into matrigel (HT1080 fibrosarcoma; 200 μM concentration): 50%
Inhibition of uPAR cleavage (uPAR [1]): inhibited
Inhibition of gelatin binding to immobilized CBD (CBD [6]): not
Inhibition of gelatin degradation (gelatinase [10]): completely inhibits
Binding of PPC peptide-bearing phage to pro-MMP-9, competition (pro-MMP-9 [4]): not
Binding of the CRV-phage to pro-MMP-9, competition (pro-MMP-9 [4]): not
Inhibition of pericellular gelatinolysis (HT1080 cells): inhibited
Inhibition of THP-1 migration (THP-1 monocytic cells): inhibitory effect

N=C(N)c1ccccc1 [benzamidine]
Inhibition of uPAR cleavage (uPAR [2]): not
